Experimental data: the supplement of paper PMC11208160

assay: recombinant UMI read abundance after kanamycin selection (control-corrected) (log10(CPM+1)); higher = more efficient recombination; extreme values may be limits of the assay; sequences stand for … in AGTGCAGAGAAAATCGGCCAGTTTTCTCTGCCTGCAGTCCGCATGCCGTGGGACCCCTTGGGTTCTAACCTGTTGCCTAGATTTATGCAGCGGACTGCCTTTCTCCCAAAGTGATAAACCGG…AGGTTGGTTTCACT; site = the 11-nt donor
In short: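 Pooled Escherichia coli screen of donor and donor-binding-loop pairs for the IS621 bridge recombinase. Each pair sits with a 12-nt UMI on a plasmid carrying a promoterless kanamycin gene. The library was co-electroporated with a target plasmid encoding a fixed target and T7-inducible recombinase, then plated with IPTG (0.07 mM) plus kanamycin, or unselected, each in two replicates. Recombinant UMIs were PCR-amplified across the donor–target junction and sequenced. Counts became CPM, averaged over replicates, scaled by control-derived factors and reported as log10(CPM+1).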

Row | Sequence | recombinant UMI read abundance (log10)
1 | GAAGATTCATGGACCGGTTTTCCCGGTAATCCGTATTTGTT (site GACGATTCTAA) | 0
2 | GAAGATTCATGGACCGGTTTTCCCGGTAATCCGTATTTGTT (site GAGGATTCTAA) | 0
3 | GAAGATTCATGGACCGGTTTTCCCGGTAATCCGTATTTGTT (site GATGATTCTAA) | 0.296
4 | GAAGATTCATGGACCGGTTTTCCCGGTAATCCGTATTTGTT (site GCAGATTCTAA) | 0.013
5 | GAAGATTCATGGACCGGTTTTCCCGGTAATCCGTATTTGTT (site GGAGATTCTAA) | 0.379
6 | GAAGATTCATGGACCGGTTTTCCCGGTAATCCGTATTTGTT (site GTAGATTCTAA) | 0.39
7 | GAAGATTCATGGACCGGTTTTCCCGGTAATCCGTATTTGTT (site TAAGATTCTAA) | 2.36
8 | GAAGCAACATGGACCGGTTTTCCCGGTAATCCGTATTTGCC (site GAAGCAACTGG) | 2.09
9 | GAAGCTTCATGGACCGGTTTTCCCGGTAATCCGTATTTGTT (site GAAGATTCTAA) | 0
10 | GAAGCTTCATGGACCGGTTTTCCCGGTAATCCGTATTTGTT (site GAAGCTTCTAA) | 1.74
11 | GAAGCTTCATGGACCGGTTTTCCCGGTAATCCGTATTTGTT (site GAAGGTTCTAA) | 0
12 | GAAGCTTCATGGACCGGTTTTCCCGGTAATCCGTATTTGTT (site GAAGTTTCTAA) | 0
13 | GAAGTATCATGGACCGGTTTTCCCGGTAATCCGTATTTGCA (site ACAGTATCTTG) | 1.54
14 | GAAGTATCATGGACCGGTTTTCCCGGTAATCCGTATTTGCA (site GAAGTATCTTG) | 2.6
15 | GAATATGCATGGACCGGTTTTCCCGGTAATCCGTATTTGAA (site GAATATGCTTT) | 2.09
16 | GAATCCGCATGGACCGGTTTTCCCGGTAATCCGTATTTGTC (site GAATCCGCTGA) | 2.15
17 | GAATCTACATGGACCGGTTTTCCCGGTAATCCGTATTTGCG (site GAATCTACTCG) | 1.04
18 | GAATGAGCATGGACCGGTTTTCCCGGTAATCCGTATTTGGA (site GAATGAGCTTC) | 1.28
19 | GAATGCCCATGGACCGGTTTTCCCGGTAATCCGTATTTGCA (site GAATGACCTTG) | 0
20 | GAATGCCCATGGACCGGTTTTCCCGGTAATCCGTATTTGCA (site GAATGCCCTTG) | 1.25
21 | GAATGCCCATGGACCGGTTTTCCCGGTAATCCGTATTTGCA (site GAATGGCCTTG) | 0
22 | GAATGCCCATGGACCGGTTTTCCCGGTAATCCGTATTTGCA (site GAATGTCCTTG) | 0
23 | GAATGTCCATGGACCGGTTTTCCCGGTAATCCGTATTTGCA (site GAATGACCTTG) | 0

Row | Sequence | recombinant UMI read abundance (log10)
24 | GAATGTCCATGGACCGGTTTTCCCGGTAATCCGTATTTGCA (site GAATGCCCTTG) | 0
25 | GAATGTCCATGGACCGGTTTTCCCGGTAATCCGTATTTGCA (site GAATGGCCTTG) | 0
26 | GAATGTCCATGGACCGGTTTTCCCGGTAATCCGTATTTGCA (site GAATGTCCTTG) | 1.28
27 | GAATTCCCATGGACCGGTTTTCCCGGTAATCCGTATTTGCT (site AAATTCCCTAG) | 0
28 | GAATTCCCATGGACCGGTTTTCCCGGTAATCCGTATTTGCT (site CAATTCCCTAG) | 0.484
29 | GAATTCCCATGGACCGGTTTTCCCGGTAATCCGTATTTGCT (site GAATTCCCTAG) | 0.671
30 | GAATTCCCATGGACCGGTTTTCCCGGTAATCCGTATTTGCT (site TAATTCCCTAG) | 0.902
31 | GACAAACCATGGACCGGTTTTCCCGGTAATCCGTATTTGGC (site GACAAACCTAC) | 0
32 | GACAAACCATGGACCGGTTTTCCCGGTAATCCGTATTTGGC (site GACAAACCTCC) | 0
33 | GACAAACCATGGACCGGTTTTCCCGGTAATCCGTATTTGGC (site GACAAACCTGC) | 0
34 | GACAAACCATGGACCGGTTTTCCCGGTAATCCGTATTTGGC (site GACAAACCTTC) | 0
35 | GACAAAGCATGGACCGGTTTTCCCGGTAATCCGTATTTGGT (site GACAAAACTAC) | 0.00355
36 | GACAAAGCATGGACCGGTTTTCCCGGTAATCCGTATTTGGT (site GACAAACCTAC) | 0
37 | GACAAAGCATGGACCGGTTTTCCCGGTAATCCGTATTTGGT (site GACAAAGCTAC) | 1.13
38 | GACAAAGCATGGACCGGTTTTCCCGGTAATCCGTATTTGGT (site GACAAATCTAC) | 0
39 | GACAAGACATGGACCGGTTTTCCCGGTAATCCGTATTTGTG (site GACAAGACTCA) | 1.73
40 | GACAATACATGGACCGGTTTTCCCGGTAATCCGTATTTGGC (site GACAATACTGC) | 1.59
41 | GACACGCCATGGACCGGTTTTCCCGGTAATCCGTATTTGTA (site GACACGCCTTA) | 0.0256
42 | GACACGCCATGGACCGGTTTTCCCGGTAATCCGTATTTGTA (site GCCACGCCTTA) | 0.176
43 | GACACGCCATGGACCGGTTTTCCCGGTAATCCGTATTTGTA (site GGCACGCCTTA) | 0.00761
44 | GACACGCCATGGACCGGTTTTCCCGGTAATCCGTATTTGTA (site GTCACGCCTTA) | 0.0098
45 | GACACGCCATGGACCGGTTTTCCCGGTAATCCGTATTTGTG (site GACACGCCTCA) | 0.149
46 | GACAGACCATGGACCGGTTTTCCCGGTAATCCGTATTTGGT (site GACAAACCTAC) | 0

Row | Sequence | recombinant UMI read abundance (log10)
47 | GACAGACCATGGACCGGTTTTCCCGGTAATCCGTATTTGGT (site GACACACCTAC) | 0.00419
48 | GACAGACCATGGACCGGTTTTCCCGGTAATCCGTATTTGGT (site GACAGACCTAC) | 0.0145
49 | GACAGACCATGGACCGGTTTTCCCGGTAATCCGTATTTGGT (site GACATACCTAC) | 0
50 | GACATACCATGGACCGGTTTTCCCGGTAATCCGTATTTGGC (site GACATACCTGC) | 0
51 | GACCCATCATGGACCGGTTTTCCCGGTAATCCGTATTTGGA (site GACCCATCTTC) | 1.26
52 | GACCGGGCATGGACCGGTTTTCCCGGTAATCCGTATTTGAT (site GACCGGGCTAT) | 0.662
53 | GACCGTCCATGGACCGGTTTTCCCGGTAATCCGTATTTGAT (site AACCGTCCTAT) | 0
54 | GACCGTCCATGGACCGGTTTTCCCGGTAATCCGTATTTGAT (site CACCGTCCTAT) | 0.00334
55 | GACCGTCCATGGACCGGTTTTCCCGGTAATCCGTATTTGAT (site GACCGTCCTAT) | 0.0192
56 | GACCGTCCATGGACCGGTTTTCCCGGTAATCCGTATTTGAT (site TACCGTCCTAT) | 0.0517
57 | GACCTCACATGGACCGGTTTTCCCGGTAATCCGTATTTGTA (site GACCTCACTTA) | 0.0239
58 | GACGAAACATGGACCGGTTTTCCCGGTAATCCGTATTTGTA (site GACGAAACTTA) | 2.54
59 | GACGAAGCATGGACCGGTTTTCCCGGTAATCCGTATTTGCT (site GACGAAGCTAG) | 2.11
60 | GACGCCACATGGACCGGTTTTCCCGGTAATCCGTATTTGAA (site GACGCCACTTT) | 0.827
61 | GACGCCGCATGGACCGGTTTTCCCGGTAATCCGTATTTGAG (site GACGCCGCTCT) | 0.349
62 | GACGCTACATGGACCGGTTTTCCCGGTAATCCGTATTTGCA (site GACGCTACTTG) | 1.36
63 | GACTATCCATGGACCGGTTTTCCCGGTAATCCGTATTTGCT (site GAATATCCTAG) | 0.00525
64 | GACTATCCATGGACCGGTTTTCCCGGTAATCCGTATTTGCT (site GACTATCCTAG) | 1.29
65 | GACTATCCATGGACCGGTTTTCCCGGTAATCCGTATTTGCT (site GAGTATCCTAG) | 0
66 | GACTATCCATGGACCGGTTTTCCCGGTAATCCGTATTTGCT (site GATTATCCTAG) | 0
67 | GACTCACCATGGACCGGTTTTCCCGGTAATCCGTATTTGAC (site GACTCACCTGT) | 0
68 | GACTCCCCATGGACCGGTTTTCCCGGTAATCCGTATTTGCA (site GACTCCCCTTG) | 1.3
